Assay results published in US11786486B2, “Pharmaceutical compositions comprising 2,3,5-trimethyl-6-nonylcyclohexa-2,5-diene-1,4-dione” (PTC THERAPEUTICS, INC., priority 2021, dated 2023).
≈ marks a conversion by molar mass, not a printed value.

Assays:
[1] = Solubility of Compound 1 in oils, surfactants and co-surfactants; format: physicochemical
Protocol: Based on the initial screening as shown in Table 1 and based on limits of excipients allowed by FDA, the solubility of Compound 1 in the oils in Table 1A were measured. Based on the solubility data, Labrafac WL 1349 was further pursued.
A total of 36 different excipients including pharmaceutically acceptable oils, surfactants and co-surfactants were evaluated for Compound 1. Higher solubility of Compound 1 in oils is desirable to increase drug loading.

[2] = Physical stability on storage (microscope / polarized microscope); format: physicochemical; settings: 25° C./60% RH and 5° C.
Protocol: Certain combinations of Gelucire 44/14 with Solutol HS15, TPGS and Tween 80 were screened as shown in Table 2 at 200 mg/g concentration of Compound 1. Physical stability was observed microscopically at week one at 25° C./60% RH and at 5° C. Bioperformance was assessed visual observation after 10× dilution in FaSSIF. Based on the crash resistance test performed with ten times dilution with FaSSIF, the most promising formulation combination for Gelucire 44/14 appeared to be 80% w/w Gelucire 44/14, 10% w/w TPGS and 10% w/w Tween 80.
In the above table and in this paragraph, the % w/w are based on the total weight of the vehicle without compound. The 80% w/w Gelucire 44/14, 10% w/w TPGS and 10% w/w Tween 80 formulation vehicles were further tested at lower Compound 1 concentrations of 150 mg/g (i.e. 150 mg of Compound 1 in 1 g of Compound 1+vehicle) and 100 mg/g (i.e. 100 mg of Compound 1 in 1 g of Compound 1+vehicle) to minimize the crystallization risk upon storage. Physical stability was observed microscopically at week one at 25° C./60% RH and at 5° C. Bioperformance was assessed visual observation after 10× dilution in FaSSIF.
Physical stability evaluation of both Gelucire 44/14-based and Labrafac-WL-1349-based formulation vehicles was done under polarized microscope. […] Therefore, Labrafac-WL-1349-based formulation was physically stable upon storage.

Solubility of Compound 1 ([1]; in Soybean oil, RT): <150 mg/g | solubility ([1]; oil or lipid, in Capryol 90, RT): 125 mg/mL (≈ 451 mM) | solubility ([1]; oil or lipid, in Capryol PGMC, RT): 184 mg/mL (≈ 665 mM) | solubility ([1]; oil or lipid, in Corn Oil, RT): 115 mg/mL (≈ 417 mM) | solubility ([1]; oil or lipid, in Cottonseed Oil, RT): 112 mg/mL (≈ 404 mM) | solubility ([1]; oil or lipid, in Labrafac Lipo WL1349, RT): 141 mg/mL (≈ 510 mM) | solubility ([1]; oil or lipid, in Labrafac PG, RT): 222 mg/mL (≈ 803 mM) | solubility ([1]; oil or lipid, in Labrafil M1944CS, RT): 101 mg/mL (≈ 364 mM) | solubility ([1]; oil or lipid, in Labrafil M2125CS, RT): 119 mg/mL (≈ 429 mM) | solubility ([1]; oil or lipid, in Lauroglycol 90, RT): 133 mg/mL (≈ 483 mM) | solubility ([1]; oil or lipid, in Lauroglycol FCC, RT): 160 mg/mL (≈ 578 mM) | solubility ([1]; oil or lipid, in Maisine CC, RT): 90.3 mg/mL (≈ 327 mM) | solubility ([1]; oil or lipid, in Olive oil, RT): 135 mg/mL (≈ 488 mM) | solubility ([1]; oil or lipid, in Plurol oleique CC 497): 50 to 100 mg/mL (≈ 181 to 362 mM) | solubility ([1]; oil or lipid, in Sesame oil, RT): 139 mg/mL (≈ 503 mM) | solubility ([1]; oil or lipid, in Soybean Oil, RT): 111 mg/mL (≈ 400 mM) | solubility ([1]; organic solvent or mixture, in Gelucire 44/14, 45° C.): 269 mg/mL (≈ 973 mM) | solubility ([1]; organic solvent or mixture, in Labrasol, RT): 35.7 mg/mL (≈ 129 mM) | solubility ([1]; organic solvent or mixture, in PEG400, 37° C.): 11 mg/mL (≈ 39.8 mM) | solubility ([1]; organic solvent or mixture, in Solutol HS15, 37° C.): 94 mg/mL (≈ 340 mM) | solubility ([1]; organic solvent or mixture, in TPGS, 45° C.): 195 mg/mL (≈ 705 mM) | solubility ([1]; organic solvent or mixture, in Triethyl citrate, RT): 30.1 mg/mL (≈ 109 mM) | solubility ([1]; organic solvent or mixture, in Tween 60): 50 to 100 mg/mL (≈ 181 to 362 mM) | solubility ([1]; organic solvent or mixture, in Tween 80): 25 to 50 mg/mL (≈ 90.4 to 181 mM) | Physical stability ([2]; 150 mg/g in vehicle 80% Gelucire 44/14, 10% TPGS, 10% Tween 80, week one): Crystallization observed | Physical stability ([2]; 200 mg/g in vehicle 70% Gelucire 44/14, 10% TPGS, 20% Tween 80, week one): Crystallization | Physical stability ([2]; 200 mg/g in vehicle 80% Gelucire 44/14, 10% TPGS, 10% Tween 80, week one): Crystallization | Physical stability ([2]; 200 mg/g in vehicle 80% Gelucire 44/14, 20% Tween 80, week one): Crystallization | Physical stability ([2]; 200 mg/g in vehicle 85% Gelucire 44/14, 5% Solutol HS15, 5% TPGS, 5% Tween 80, week one): Crystallization | Physical stability ([2]; 200 mg/g in vehicle 90% Gelucire 44/14, 10% TPGS, week one): Crystallization | Physical stability ([2]; 200 mg/g in vehicle 90% Gelucire 44/14, 10% Tween 80, week one): Crystallization
SMILES: CCCCCCCCCC1=C(C)C(=O)C(C)=C(C)C1=O [Compound 1, 2,3,5-trimethyl-6-nonylcyclohexa-2,5-diene-1,4-dione]
